Source: patent US12473266B2, “Benzoxazole and related compounds useful as chaperone-mediated autophagy modulators” (Albert Einstein College of Medicine, priority 2018, dated 2025)

What was measured:
[1] = tested on: CMA activity (KFERQ-Dendra reporter) in NIH 3T3 fibroblasts; assay: Photoconvertible CMA reporter (KFERQ-Dendra) assay, fluorescent puncta per cell; format: cell-based; conditions: NIH 3T3 KFERQ-Dendra; for effect on the number of fluorescent puncta per cell: result in words
Protocol: The photoactivatable CMA reporter assay was constructed by inserting a sequence of 21 amino acid of Ribonuclease A bearing the CMA-targeting motif in the N-terminus multicloning site of the photoactivatable protein mCherry1 or the photoswitchable protein Dendra 2.
NIH 3T3 fibroblasts were stably transduced with a photoconvertible CMA reporter, KFERQ-Dendra and were photoswitched by exposure to a […] (constant current) LED (Norlux, 405 nm) for 10 minutes and at the desired times fixed in 3% formaldehyde. Test cells are exposed to the indicated concentrations of the compounds, e.g. for 12 hours or 24 hours. Cells are imaged, e.g., by using high content microscopy (Operetta, Perkin Elmer) or by capturing images with an Axiovert 200 fluorescence microscope (Zeiss) with apotome and equipped with a 63×1.4 NA oil objective lens and red (ex. 570/30 nm, em. 615/30 nm), cyan (ex. 365/50 nm and em. 530/45 nm) and green (ex. 475/40 nm and em. 535/45 nm) filter sets (Chroma). Images were acquired with a high-resolution CCD camera after optical sectioning through the apotome. CMA activity is measured as the average number of fluorescent puncta (CMA active lysosomes) per cell. Values are expressed relative to values in untreated cells that were assigned an arbitrary value of 1 and are mean of >2,500 cells counted per condition. The S.D. in all instances was <0.01% mean value.

in vitro = assay: in vitro
Protocol: Microsome stability is determined in human, rat, and mouse, liver microsomes.
Compound at 3 μM final concentration along with 0.5 mg/mL microsome protein and 1 mM NADPH was incubated for 0, 5, 15, 30 and 60 min. As a negative control, test compound is incubated with microsomes in the absence of NADPH. Samples are quenched with methanol and centrifuged for 25 min at 2500 rpm to precipitate proteins. Supernatants are analyzed (N=3) by LC-MS./MS. The ln peak area ratio (compound peak area/internal standard peak area) is plotted against time and the gradient of the line determined the elimination rate constant [k=(−1)(slope)].
R^2 is the correlation coefficient of the linear regression for the determination of kinetic constant. T1/2 is the half life and CLint (mic) is the intrinsic clearance. CLint(liver)=CLint (mic)*mg microsomal protein/g liver weight*g liver weight/kg body weight. Liver weight/kg body weight is 20 g/kg for human.

Clc1ccc2nc(-c3ccc(-c4ccccc4)cc3)oc2c1 [Cmp. 1, 2-([1,1′-biphenyl]-4-yl)-6-chlorobenzo[d]oxazole]
CMA activity, average number of fluorescent puncta (CMA active lysosomes) per cell, relative to untreated cells (=1) ([1]; column 'Time' = 5): 2.43 | CMA activity, average number of fluorescent puncta (CMA active lysosomes) per cell, relative to untreated cells (=1) ([1]; column 'Time' = 10): 2.16 | CMA activity, average number of fluorescent puncta (CMA active lysosomes) per cell, relative to untreated cells (=1) ([1]; column 'Time' = 20): 2.98 | CMA activity, average number of fluorescent puncta (CMA active lysosomes) per cell, relative to untreated cells (=1) ([1]; column 'Time' = 30): 3.22 | CLint scaled at 3 μM (in vitro; human, microsomes): < 8.6 mL/min/kg | half-life at 3 μM (in vitro; human, microsomes): > 2.42 h | CLint(mic) (in vitro; human, microsomes, 3 μM): < 9.6 µL/min/mg | Remaining (T = 60 min) (in vitro; human, microsomes, 1 h, 3 μM): 83.4%

CC(=O)Nc1ccc(-c2nc3ccc(Cl)cc3o2)cc1 [Cmp. 2, N-(4-(6-chlorobenzo[d]oxazol-2-yl)phenyl)acetamide]
CMA activity, average number of fluorescent puncta (CMA active lysosomes) per cell, relative to untreated cells (=1) ([1]; column 'Time' = 5): 2.72 | CMA activity, average number of fluorescent puncta (CMA active lysosomes) per cell, relative to untreated cells (=1) ([1]; column 'Time' = 10): 2.63 | CMA activity, average number of fluorescent puncta (CMA active lysosomes) per cell, relative to untreated cells (=1) ([1]; column 'Time' = 20): 3.40 | CMA activity, average number of fluorescent puncta (CMA active lysosomes) per cell, relative to untreated cells (=1) ([1]; column 'Time' = 30): 5.12

O=C(Nc1ccc(-c2nc3ccc(Cl)cc3o2)cc1)C(F)(F)F [Cmp. 3, N-(4-(6-chlorobenzo[d]oxazol-2-yl)phenyl)-2,2,2-trifluoroacetamide]
effect on the number of fluorescent puncta per cell [1]: positive effect

CC(C)CC(=O)Nc1ccc(-c2nc3ccc(Cl)cc3o2)cc1 [Cmp. 5, N-(4-(6-chlorobenzo[d]oxazol-2-yl)phenyl)-3-methylbutanamide]
effect on the number of fluorescent puncta per cell [1]: positive effect

O=C(Nc1ccc(-c2nc3ccc(Cl)cc3o2)cc1)c1ccc(F)cc1 [Cmp. 6, N-(4-(6-chlorobenzo[d]oxazol-2-yl)phenyl)-4-fluorobenzamide]
effect on the number of fluorescent puncta per cell [1]: positive effect

O=S(=O)(Nc1ccc(-c2nc3ccc(Cl)cc3o2)cc1)c1ccc(F)cc1 [Cmp. 7, N-(4-(6-chlorobenzo[d]oxazol-2-yl)phenyl)-4-fluorobenzenesulfonamide]
effect on the number of fluorescent puncta per cell [1]: positive effect

O=S(=O)(Nc1ccc(-c2nc3ccc(Cl)cc3o2)cc1)C(F)(F)F [Cmp. 8, N-(4-(6-chlorobenzo[d]oxazol-2-yl)phenyl)-1,1,1-trifluoromethanesulfonamide]
effect on the number of fluorescent puncta per cell [1]: positive effect

FC(F)(F)c1ccc(-c2ccc(-c3nc4ccc(Cl)cc4o3)cc2)cc1 [Cmp. 10, 6-chloro-2-(4′-trifluoromethyl-[1,1′-biphenyl]-4-yl)benzo[d]oxazole]
effect on the number of fluorescent puncta per cell [1]: positive effect

O=C(Nc1ccc(-c2nc3cc(Cl)ccc3o2)cc1)C(F)(F)F [Cmp. 13, N-(4-(5-chlorobenzo[d]oxazol-2-yl)phenyl)-2,2,2-trifluoroacetamide]
effect on the number of fluorescent puncta per cell [1]: positive effect

O=C(Nc1ccc(-c2ccc(-c3nc4cc(Cl)ccc4o3)cc2)cc1)C(F)(F)F [Cmp. 14, N-(4′-(5-chlorobenzo[d]oxazol-2-yl)-[1,1′-biphenyl]-4-yl)-2,2,2-trifluoroacetamide]
effect on the number of fluorescent puncta per cell [1]: positive effect

Clc1ccc2c(c1)OCC(c1ccc(-c3ccccc3)cc1)=N2 [Cmp. A]
CLint(mic) (in vitro; human, microsomes, 3 μM): 36.6 µL/min/mg | Remaining (T = 60 min) (in vitro; human, microsomes, 1 h, 3 μM): 30.1%

O=C(O)Cc1ccccc1Nc1c(Cl)cccc1Cl [Diclofenac]
Remaining (T = 60 min) (in vitro; human, microsomes, 1 h, 3 μM): 6.8%

C[C@]12CC[C@H]3[C@@H](CCC4=CC(=O)CC[C@@]43C)[C@@H]1CC[C@@H]2O [Testosterone]
Remaining (T = 60 min) (in vitro; human microsomes, 60 min incubation): 4.6%
